Measured values: the supplement of paper PMC13380429

Tests used:
Settings in all cases: 72 h
U2OS [1] = test: drug sensitivity score (DSS) for viability; higher = more toxic; extreme values may be limits of the assay
Calu-3 [2] = test: as above
Caco-2 [3] = test: as above
Vero E6 [4] = test: as above
HepG2 [5] = test: as above
U2OS [6] = test: relative viability EC50 (midpoint between 100% and the lowest measured viability); higher = less toxic
Caco-2 [7] = test: as above
Vero E6 [8] = test: as above
HepG2 [9] = test: as above
U2OS [10] = test: cell viability relative to DMSO; higher = less toxic
Calu-3 [11] = test: as above
Caco-2 [12] = test: as above
Vero E6 [13] = test: as above
HepG2 [14] = test: as above

Compound | drug sensitivity score (U2OS [1]) | drug sensitivity score (Calu-3 [2]) | drug sensitivity score (Caco-2 [3]) | drug sensitivity score (Vero E6 [4]) | drug sensitivity score (HepG2 [5]) | relative viability EC50 (U2OS [6]) | relative viability EC50 (Caco-2 [7]) | relative viability EC50 (Vero E6 [8]) | relative viability EC50 (HepG2 [9]) | cell viability (U2OS [10]; 1 nM) | cell viability (U2OS [10]; 10 nM) | cell viability (U2OS [10]; 100 nM) | cell viability (U2OS [10]; 1000 nM) | cell viability (U2OS [10]; 10000 nM) | cell viability (Calu-3 [11]; 1 nM) | cell viability (Calu-3 [11]; 10 nM) | cell viability (Calu-3 [11]; 100 nM) | cell viability (Calu-3 [11]; 1000 nM) | cell viability (Calu-3 [11]; 10000 nM) | cell viability (Caco-2 [12]; 1 nM) | cell viability (Caco-2 [12]; 10 nM) | cell viability (Caco-2 [12]; 100 nM) | cell viability (Caco-2 [12]; 1000 nM) | cell viability (Caco-2 [12]; 10000 nM) | cell viability (Vero E6 [13]; 1 nM) | cell viability (Vero E6 [13]; 10 nM) | cell viability (Vero E6 [13]; 100 nM) | cell viability (Vero E6 [13]; 1000 nM) | cell viability (Vero E6 [13]; 10000 nM) | cell viability (HepG2 [14]; 1 nM) | cell viability (HepG2 [14]; 10 nM) | cell viability (HepG2 [14]; 100 nM) | cell viability (HepG2 [14]; 1000 nM) | cell viability (HepG2 [14]; 10000 nM)
CC1(C)CCC(C)(C)c2cc(NC(=O)c3ccc(C(=O)O)cc3)ccc21 [tamibarotene] | 0.3 | 10.1 | 0.4 | 0 | 0 | > 10 µM | > 10 µM | > 10 µM | > 10 µM | 99% | 96.1% | 90.6% | 91.4% | 87.7% | 95.4% | 83.6% | 73.5% | 67.8% | 70.1% | 98% | 100% | 95.4% | 98.8% | 83.8% | 101% | 101% | 100% | 91.6% | 96.5% | 110% | 98.7% | 114% | 109% | 108%
CN(C)CCn1nnnc1SCC1=C(C(=O)O)N2C(=O)[C@@H](NC(=O)Cc3csc(N)n3)[C@H]2SC1 [cefotiam] | 0 |  | 0 | 0 | 0 | > 10 µM | > 10 µM | > 10 µM | > 10 µM | 100% | 97.2% | 106% | 103% | 103% |  |  |  |  |  | 106% | 96.7% | 101% | 103% | 104% | 99.3% | 95.5% | 96% | 88.1% | 104% | 102% | 94.5% | 99.7% | 96.5% | 104%
N.N.O=C([O-])C[O-].[Pt+2] [nedaplatin] |  |  |  |  | 0 |  |  |  |  |  |  |  |  |  |  |  |  |  |  |  |  |  |  |  |  |  |  |  |  |  |  |  |  | 
C[C@H](/C=C/[C@H](C)C(C)(C)O)[C@H]1CC[C@H]2/C(=C/C=C3C[C@@H](O)C[C@H](O)C3)CCC[C@]12C [paricalcitol] | 0 |  | 0.1 | 0 | 0.9 | > 10 µM | > 10 µM | > 10 µM | > 10 µM | 107% | 98.1% | 98.9% | 97.6% | 99.3% |  |  |  |  |  | 102% | 101% | 98.8% | 89.8% | 96.5% | 96.6% | 97.3% | 95.4% | 103% | 101% | 101% | 99.2% | 99.3% | 95.6% | 82.1%
CCOC(=O)c1ccc(N2NC(=O)/C(=C/c3ccc([N+](=O)[O-])o3)C2=O)cc1 [PYR-41] | 1.8 | 5.7 | 2.6 | 0.1 | 0.1 | > 10 µM |  | > 10 µM | > 10 µM | 93.5% | 98.3% | 101% | 93.4% | 75.5% | 85.5% | 101% | 92.2% | 71.6% | 62% | 96% | 100% | 95.1% | 85% | 71.2% | 103% | 103% | 99.2% | 101% | 85.7% | 112% | 99.7% | 94.4% | 105% | 84.9%
CCCNC(=O)NS(=O)(=O)c1ccc(Cl)cc1 [chlorpropamide] | 0 |  | 0 | 0 | 0 | > 10 µM | > 10 µM | > 10 µM | > 10 µM | 97.4% | 103% | 97.4% | 99.9% | 93.6% |  |  |  |  |  | 92.6% | 108% | 87.1% | 99.1% | 95.2% | 97.5% | 98.2% | 102% | 103% | 104% | 104% | 103% | 102% | 95.4% | 99.8%
COc1cc(/C=C(\C#N)C(N)=O)cc(CSc2nc3ccccc3s2)c1O [tyrphostin-AG-825] | 0 |  | 0 | 0 | 0 | > 10 µM | > 10 µM | > 10 µM | > 10 µM | 94.7% | 99.9% | 97.7% | 96% | 101% |  |  |  |  |  | 102% | 103% | 96.2% | 107% | 96.4% | 92.6% | 97% | 94.7% | 93.8% | 105% | 105% | 92.4% | 103% | 97.3% | 108%
CC1CCc2cc(F)cc3c(=O)c(C(=O)O)cn1c23 (stereo not drawn) [flumequine] | 0 |  | 0 | 0 | 0 | > 10 µM | > 10 µM | > 10 µM | > 10 µM | 98.1% | 98.3% | 102% | 97.9% | 104% |  |  |  |  |  | 91% | 75.1% | 96.5% | 112% | 121% | 103% | 94.7% | 107% | 108% | 92.1% | 95.3% | 97.7% | 89.4% | 96.4% | 92.7%
C/C(=N\NC(=N)N)c1cc(NC(=O)CCCCCCCCC(=O)Nc2cc(/C(C)=N/NC(=N)N)cc(/C(C)=N/NC(=N)N)c2)cc(/C(C)=N/NC(=N)N)c1 [semapimod] | 1.3 | 3.3 | 2.5 | 1.2 | 3 |  |  | > 10 µM |  | 101% | 103% | 96.3% | 102% | 67.6% | 98.5% | 98.6% | 102% | 88.1% | 65.8% | 99.4% | 103% | 106% | 91.1% | 71% | 100% | 93.4% | 92.1% | 94.7% | 75.9% | 91.9% | 99.6% | 104% | 90.3% | 65.6%
NCC1OC(C23CC4CC(CC(C4)C2)C3)Cc2c1ccc(O)c2O (stereo not drawn) | 0 | 2.6 | 4 | 2 | 4 | > 10 µM |  |  | 3.26 µM | 102% | 100% | 99% | 94.9% | 92.5% | 106% | 98.1% | 100% | 94.2% | 65.3% | 114% | 86.9% | 94.3% | 85.1% | 54.4% | 94% | 97.3% | 96% | 100% | 58.8% | 101% | 95.9% | 103% | 101% | 26.5%
Cc1ccc(-c2c(-c3nn(C)c4ncnc(N5CC[C@H](N6CCCCC6)C5)c34)cnn2C)cc1 | 0 |  | 0 |  |  | > 10 µM | > 10 µM |  |  | 104% | 99.5% | 99% | 98.9% | 100% |  |  |  |  |  | 106% | 102% | 106% | 96.1% | 100% |  |  |  |  |  |  |  |  |  | 
CC(=O)c1ccc2c(c1)N(CCCN1CCC(CCO)CC1)c1ccccc1S2 [piperacetazine] | 0 | 0 |  | 0 | 0.9 |  |  |  |  |  |  |  |  |  |  |  |  |  |  |  |  |  |  |  |  |  |  |  |  |  |  |  |  | 
CCOc1ccc2nc(S(N)(=O)=O)sc2c1 [ethoxzolamide] | 0 | 0 | 0 | 0 | 0 |  |  |  |  | 96.6% | 97.9% | 97.6% | 99.3% | 105% | 95.3% | 101% | 101% | 101% | 113% |  | 102% | 135% | 98.6% | 95.5% | 84.1% | 93.1% | 89.4% | 96.3% | 116% | 101% | 104% | 98.6% | 125% | 116%
c1ccc2c(Oc3nc(Nc4ccc(N5CCOCC5)cc4)c4ncn(C5CCCCC5)c4n3)cccc2c1 [purmorphamine] |  | 0.7 | 0 | 0 | 1.7 |  | > 10 µM | > 10 µM | > 10 µM |  |  |  |  |  | 92.7% | 92.4% | 94.3% | 106% | 74.3% | 94.9% | 94.2% | 89.8% | 98.7% | 85.9% | 99.2% | 96.1% | 100% | 91.7% | 90.1% | 97.4% | 105% | 103% | 91.9% | 77.8%
C=C1/C(=C\C=C2/CCC[C@]3(C)[C@@H]([C@H](C)OCCC(C)(C)O)CC[C@@H]23)C[C@@H](O)C[C@@H]1O [maxacalcitol] | 0 |  | 0 | 0 | 0 | > 10 µM | > 10 µM | > 10 µM | > 10 µM | 102% | 103% | 93.5% | 91.6% | 97.4% |  |  |  |  |  | 91.9% | 91.3% | 94.1% | 87.8% | 101% | 109% | 105% | 102% | 100% | 94.6% | 105% | 99.3% | 98.3% | 91.5% | 98.5%
CCOC(=O)c1ccc(NC2CCCCC2)c(N)c1 [ferrostatin-1] | 0 |  | 0.1 | 0 | 0 | > 10 µM | > 10 µM | > 10 µM | > 10 µM | 97.5% | 96.6% | 98.6% | 98.9% | 96.6% |  |  |  |  |  | 99.8% | 99.9% | 102% | 102% | 86.1% | 97.6% | 101% | 94.3% | 95.1% | 100% | 94% | 108% | 97.8% | 97% | 113%
CN(c1ccccc1CNc1nc(Nc2ccc3c(c2)CC(=O)N3)ncc1C(F)(F)F)S(C)(=O)=O | 9.2 |  | 6 | 9.6 | 10.9 | 1.58 µM | 1.61 µM | 1.07 µM | 0.895 µM | 98.2% | 102% | 94.3% | 76.1% | 0.2% |  |  |  |  |  | 92.4% | 91.6% | 91.5% | 83.8% | 33.6% | 97% | 88.8% | 81.2% | 65.4% | 10.3% | 92.8% | 89.9% | 92.9% | 51.5% | 7.2%
O=C(CCCN1CCN(c2ccccn2)CC1)c1ccc(F)cc1 [azaperone] | 0 | 0.1 |  | 0 | 0.7 |  |  |  |  |  |  |  |  |  |  |  |  |  |  |  |  |  |  |  |  |  |  |  |  |  |  |  |  | 
